Results: ChEMBL document CHEMBL3885861, “Open TG-GATES”

Species: Rattus norvegicus
Test: Open TG-GATES - Regimen: Single
Type: toxicity, organism-based, Sprague-Dawley
Design: regimen Single, gender Male, age 6 weeks
Settings: in vivo, po, 60 mg/kg, route gavage, dose level High; for APTT / Bas / Eos / Fbg / Hb / Ht / Lym / MCH / MCHC / MCV / Mono / Neu / PT / Plat / RBC / Ret / WBC: tissue Blood; for KIDNEY_L / KIDNEY_R / KIDNEY_TOTAL: tissue Kidney; for LIVER: tissue Liver; for A/G / ALP / ALT / AST / BUN / CRE / Ca / Cl / DBIL / GLC / IP / K / LDH / Na / PL / RALB / TBIL / TC / TG / TP / gamma-GTP: tissue Plasma

CC(C)NNC(=O)c1ccncc1 [IPRONIAZID]
TERMINAL_BW (3 h): 204.9 g
APTT (3 h): 22.1 s
Bas (3 h): 0%
Eos (3 h): 1%
Fbg (3 h): 294 mg/dL
Hb (3 h): 12.7 g/dL
Ht (3 h): 37%
Lym (3 h): 74.8%
MCH (3 h): 20.9 pg
MCHC (3 h): 34.2%
MCV (3 h): 61 fL
Mono (3 h): 2%
Neu (3 h): 21.8%
PT (3 h): 16.2 s
Plat (3 h): 124.5 x10_4/uL
RBC (3 h): 608.8 x10_4/ul
Ret (3 h): 7.9%
WBC (3 h): 90.6 x10_2/uL
KIDNEY_L (3 h): 1 g
KIDNEY_R (3 h): 1 g
KIDNEY_TOTAL (3 h): 1.9 g
LIVER (3 h): 8.8 g
A/G (3 h): 1.3
ALP (3 h): 1312.5 IU/L
ALT (3 h): 35 IU/L
AST (3 h): 72.2 IU/L
BUN (3 h): 12 mg/dL
CRE (3 h): 0.2 mg/dL
Ca (3 h): 10.5 mg/dL
Cl (3 h): 105.8 meq/L
DBIL (3 h): 0 mg/dL
GLC (3 h): 180.5 mg/dL
IP (3 h): 9.8 mg/dL
K (3 h): 4 meq/L
LDH (3 h): 221.5 IU/L
Na (3 h): 141.2 meq/L
PL (3 h): 136 mg/dL
RALB (3 h): 2.9 g/dL
TBIL (3 h): 0 mg/dL
TC (3 h): 78 mg/dL
TG (3 h): 34.8 mg/dL
TP (3 h): 5.2 g/dL
gamma-GTP (3 h): 1 IU/L
TERMINAL_BW (6 h): 212.4 g
APTT (6 h): 21.7 s
Bas (6 h): 0%
Eos (6 h): 0.8%
Fbg (6 h): 325.8 mg/dL
Hb (6 h): 13 g/dL
Ht (6 h): 38%
Lym (6 h): 72.2%
MCH (6 h): 21 pg
MCHC (6 h): 34.3%
MCV (6 h): 61.4 fL
Mono (6 h): 2%
Neu (6 h): 23.8%
PT (6 h): 15.6 s
Plat (6 h): 125.7 x10_4/uL
RBC (6 h): 619.8 x10_4/ul
Ret (6 h): 8%
WBC (6 h): 79.9 x10_2/uL
KIDNEY_L (6 h): 0.9 g
KIDNEY_R (6 h): 0.9 g
KIDNEY_TOTAL (6 h): 1.8 g
LIVER (6 h): 9.2 g
A/G (6 h): 1.3
ALP (6 h): 1181.8 IU/L
ALT (6 h): 35 IU/L
AST (6 h): 75.4 IU/L
BUN (6 h): 8.8 mg/dL
CRE (6 h): 0.1 mg/dL
Ca (6 h): 10.8 mg/dL
Cl (6 h): 106.8 meq/L
DBIL (6 h): 0.002 mg/dL
GLC (6 h): 180 mg/dL
IP (6 h): 9.9 mg/dL
K (6 h): 4.1 meq/L
LDH (6 h): 237.8 IU/L
Na (6 h): 142 meq/L
PL (6 h): 159.2 mg/dL
RALB (6 h): 3 g/dL
TBIL (6 h): 0.002 mg/dL
TC (6 h): 93.6 mg/dL
TG (6 h): 44.6 mg/dL
TP (6 h): 5.5 g/dL
gamma-GTP (6 h): 1.4 IU/L
TERMINAL_BW (9 h): 196.4 g
APTT (9 h): 22.5 s
Bas (9 h): 0%
Eos (9 h): 1%
Fbg (9 h): 320.6 mg/dL
Hb (9 h): 13 g/dL
Ht (9 h): 37.9%
Lym (9 h): 76%
MCH (9 h): 20 pg
MCHC (9 h): 34.3%
MCV (9 h): 58.3 fL
Mono (9 h): 1.4%
Neu (9 h): 21%
PT (9 h): 15.9 s
Plat (9 h): 121.4 x10_4/uL
RBC (9 h): 650.4 x10_4/ul
Ret (9 h): 6.3%
WBC (9 h): 55.2 x10_2/uL
KIDNEY_L (9 h): 0.9 g
KIDNEY_R (9 h): 0.9 g
KIDNEY_TOTAL (9 h): 1.8 g
LIVER (9 h): 8 g
A/G (9 h): 1.2
ALP (9 h): 1174.6 IU/L
ALT (9 h): 27.2 IU/L
AST (9 h): 65 IU/L
BUN (9 h): 7.6 mg/dL
CRE (9 h): 0.2 mg/dL
Ca (9 h): 10.4 mg/dL
Cl (9 h): 107 meq/L
DBIL (9 h): 0.006 mg/dL
GLC (9 h): 184.6 mg/dL
IP (9 h): 9.4 mg/dL
K (9 h): 4 meq/L
LDH (9 h): 176.2 IU/L
Na (9 h): 142.2 meq/L
PL (9 h): 139.6 mg/dL
RALB (9 h): 3.1 g/dL
TBIL (9 h): 0.004 mg/dL
TC (9 h): 84.4 mg/dL
TG (9 h): 30.4 mg/dL
TP (9 h): 5.6 g/dL
gamma-GTP (9 h): 1 IU/L
TERMINAL_BW (24 h): 208.5 g
APTT (24 h): 21.7 s
Bas (24 h): 0%
Eos (24 h): 1%
Fbg (24 h): 336.8 mg/dL
Hb (24 h): 13.6 g/dL
Ht (24 h): 39.4%
Lym (24 h): 80.6%
MCH (24 h): 21.3 pg
MCHC (24 h): 34.5%
MCV (24 h): 61.8 fL
Mono (24 h): 2.4%
Neu (24 h): 14.8%
PT (24 h): 15.4 s
Plat (24 h): 119.6 x10_4/uL
RBC (24 h): 637.4 x10_4/ul
Ret (24 h): 7.5%
WBC (24 h): 66.9 x10_2/uL
KIDNEY_L (24 h): 0.9 g
KIDNEY_R (24 h): 1 g
KIDNEY_TOTAL (24 h): 1.9 g
LIVER (24 h): 9.2 g
A/G (24 h): 1.3
ALP (24 h): 1223.4 IU/L
ALT (24 h): 37 IU/L
AST (24 h): 74.4 IU/L
BUN (24 h): 14 mg/dL
CRE (24 h): 0.2 mg/dL
Ca (24 h): 10.6 mg/dL
Cl (24 h): 107 meq/L
DBIL (24 h): 0.002 mg/dL
GLC (24 h): 187.6 mg/dL
IP (24 h): 7.8 mg/dL
K (24 h): 4.1 meq/L
LDH (24 h): 240.4 IU/L
Na (24 h): 142.6 meq/L
PL (24 h): 148.6 mg/dL
RALB (24 h): 3.1 g/dL
TBIL (24 h): 0.02 mg/dL
TC (24 h): 91 mg/dL
TG (24 h): 60.6 mg/dL
TP (24 h): 5.6 g/dL
gamma-GTP (24 h): 1.6 IU/L
